Tests used:
[1] = hemolytic activity of NPP compared with nystatin; type: cell-based
[2] = solubility of NPP compared with nystatin; type: physicochemical
[3] = relative to nystatin which contains only a saccharide
[4] = relative to nystatin, which contains only mycosamine

## CC(=O)NC1C(OC2C(C)OC(OC3/C=C/C=C/C=C/C=C/CC/C=C/C=C/C(C)C(O)C(C)C(C)OC(=O)CC(O)CC(O)CC(O)CCC(O)C(O)CC4(O)CC(O)C(C(=O)O)C(C3)O4)C(O)C2N)OC(CO)C(O)C1O (stereo not shown) [NPP, nystatin-like polyene (NPP)]
[1]; [3]
  hemolytic activity compared with nystatin (in words): lower hemolytic activity
[1]; [4]
  lower hemolytic activity than nystatin: 10 fold
[2]; [3]
  solubility compared with nystatin (in words): higher solubility
[2]; [4]
  higher solubility than nystatin: more than 300 fold

Reference: patent US9850470B2, “Polyene-specific glycosyltransferase derived from Pseudonocardia autotrophica” (INHA-INDUSTRY PARTNERSHIP INSTITUTE, priority 2013, dated 2017)
